The target in this test is Krueppel-like factor 5 (Homo sapiens) (UniProt Q13887). The test can be described thus: change in KLF5 protein levels, late-stage follow-up, counter-screen for KLF5 inhibitor project, western blot, chemiluminescence, DLD-1 cells (AID 588617). The settings on record: 24 h, at 10 µM, active compounds read high. A general note: A counterscreen serves to expose hits that act by an unwanted route or on another target.

From PubChem BioAssay AID588617 (The Scripps Research Institute Molecular Screening Center, 2011) come the findings set out here.

The inhibition is the drop in the measured response relative to a control, in per cent.

Chain of Krueppel-like factor 5 (Homo sapiens) (Q13887 whole entry, looked up): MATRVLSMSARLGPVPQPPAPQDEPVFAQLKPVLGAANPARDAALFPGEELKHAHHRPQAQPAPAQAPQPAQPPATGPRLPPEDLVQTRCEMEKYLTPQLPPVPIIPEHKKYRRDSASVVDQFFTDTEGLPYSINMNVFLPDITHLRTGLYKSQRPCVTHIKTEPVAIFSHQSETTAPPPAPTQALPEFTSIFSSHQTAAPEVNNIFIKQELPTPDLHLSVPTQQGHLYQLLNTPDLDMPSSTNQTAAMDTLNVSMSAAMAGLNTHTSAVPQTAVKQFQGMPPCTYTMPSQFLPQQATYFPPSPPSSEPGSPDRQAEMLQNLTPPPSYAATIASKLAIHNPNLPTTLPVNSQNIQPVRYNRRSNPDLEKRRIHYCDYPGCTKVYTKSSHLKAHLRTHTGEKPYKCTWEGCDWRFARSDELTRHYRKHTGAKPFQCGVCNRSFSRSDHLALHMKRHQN

On to `CN(C(=O)COC(=O)/C=C/c1cccc([N+](=O)[O-])c1)C1CCS(=O)(=O)C1` (stereo unspecified), for which the inhibition was 30.1%.
